Literature values in patent US12397030B2, “Polyphenol compositions and uses thereof” (METAGENICS, INC., priority 2019, dated 2025).

Tests used:
[1] = humans
[2] = test system: ATP-binding cassette transporter A1 (ABCA1); settings: enhances reverse cholesterol transport

Q: What does the source list for `O=c1oc2c(O)c(O)cc3c(=O)oc4c(O)c(O)cc1c4c23` [ellagic acid]?
A: time by which no longer detected [1]: ≤ 5 h; time to appearance following consumption [1]: ~30 min; elimination half-life ([1]; after consumption): 42.6 min

Q: With `O=c1oc2cc(O)ccc2c2ccccc12` [urolithin B] as the compound, how does the “ABCA1 expression in macrophages” value [2] read?
A: upregulation
